Results on three molecules are retold here after US10029000B2, “Uses of IL-12 in hematopoiesis” (University of Southern California, priority 2003, dated 2018).

In this assay the test system is lethally irradiated mice. Kind of assay: Radioprotection assay: survival of mice after total body lethal irradiation. The format is in vivo, mice (C57BL/6J). The conditions noted are these: cytokine given 1 hour post lethal dose radiation; for Survives: 4-5 mice per group. Here is the method:
Mice received recombinant murine IL-12 (100 ng/mouse (which is about 5 ug/kg on average), intravenous injection) before (24 hours) or after (1 hour) lethal dose radiation (1000 rad). Mice in control group received equal volume of PBS buffer. Survival rate were analyzed by Kaplan-Meier method and p value was calculated using Log Rank Test.
To determine the minimum effective radioprotective dose of IL-12, different dose of IL-112 were administered to lethally irradiated animals before (24 hours before) or post (within one hour) lethal dose ionizing radiation.
IL-12 was administrated to mice at different doses 24 hours before radiation to determine if there is a dose dependent relationship between the concentration of IL-12 administration and survival from lethal irradiation.
To further explore the relationship of IL-12 hematopoietic rescue effect as it may relate to the time of administration, IL-12 was administrated to lethally irradiated animals at different time before and after the radiation. The following time points were tested: −48, −36, −24, and −12 hours before radiation, or +1, +12, +24, and +36 hours post radiation.
A study was conducted to determine if the radioprotective effect of IL-12 administration is specific and INF- ? independent. […] Also, an assessment was made to determine if there was a synergistic effect between GM-CSF and IL-12.
Mice were provided with acid water for one week before the radioprotection assay. Cytokines, diluted in phosphate buffered saline (PBS), pH 7.4, were intravenously injected into mice before or after total body lethal irradiation (TBI) at the specified times. Control group mice were injected with PBS buffer. For TBI, mice were either exposed twice to ionizing irradiation ( ? -ray from Cesium 137) at 500 rad dose with a 3 hour interval, or one time at a dose of 1000 rad in a Gammacell 40 machine from Atomic Energy of Canada LTD (Kanafa, Ontario, Canada). The ? -ray exposure rate is 1 Gy/min. […] After irradiation, mice were given water containing antibiotics. For the survival curve, the Kaplan-Meier method was used. Each experiment was repeated three or more times.

With “GM-CSF: a cytokine to stimulate G and M cell production”, the “Survival rate (%)” value turned out to be 0%, the radioprotective effect result is “did not show any radioprotective effect” and the Survives came out at 0.

On to “IL-18: cytokine that, like IL-12, can induce the release of interferon”, for which the “Survival rate (%)” value was found to be 0%, the radioprotective effect entry was “no radioprotective effect” and the Survives is 0.

B1: IL-23: a heterodimer (p19+p40), which shares the same subunit p40 with IL-12 (protein, UniProt Q9NPF7 20-189; P29460 23-328, looked up)
Interleukin-23 subunit alpha: RAVPGGSSPAWTQCQQLSQKLCTLAWSAHPLVGHMDLREEGDEETTNDVPHIQCGDGCDPQGLRDNSQFCLQRIHQGLIFYEKLLGSDIFTGEPSLLPDSPVGQLHASLLGLSQLLQPEGHHWETQQIPSLSPSQPWQRLLLRFKILRSLQAFVAVAARVFAHGAATLSP
Interleukin-12 subunit beta: IWELKKDVYVVELDWYPDAPGEMVVLTCDTPEEDGITWTLDQSSEVLGSGKTLTIQVKEFGDAGQYTCHKGGEVLSHSLLLLHKKEDGIWSTDILKDQKEPKNKTFLRCEAKNYSGRFTCWWLTTISTDLTFSVKSSRGSSDPQGVTCGAATLSAERVRGDNKEYEYSVECQEDSACPAAEESLPIEVMVDAVHKLKYENYTSSFFIRDIIKPDPPKNLQLKPLKNSRQVEVSWEYPDTWSTPHSYFSLTFCVQVQGKSKREKKDRVFTDKTSATVICRKNASISVRAQDRYYSSSWSEWASVPCS
Consider B1, for which the “Survival rate (%)” value is listed as 0%, the radioprotective effect result is given as “no radioprotective effect” and the Survives is given as 0.
